The source of these data is US20260263584A1, “Modulating the Innate Immunity of RNA” (priority 2023, published 2026).

The subject of this assay is Hela cells. In kind it is cell-based, human.

In the case of `Cn1c(=O)n(C2CCC(=O)NC2=O)c2cccc(C#CCOC3CCN(C[C@H]4CC[C@H](n5cc(NC(=O)c6cnn7ccc(N8C[C@H]9C[C@@H]8CO9)nc67)c(C(F)F)n5)CC4)CC3)c21` (stereo partly drawn) [PF-07911620, N-{3-(difluoromethyl)-1-[(1S,4R)-4-({4-[(3-{1-[(3S)-2,6-dioxopiperidin-3-yl]-3-methyl-2-oxo-2,3-dihydro-1H-benzimidazol-4-yl}prop-2-yn-1-yl)oxy]piperidin-1-yl}methyl)cyclohexyl]-1H-pyrazol-4-yl}-5-[(1R,4R)-2-oxa-5-azabicyclo[2,2,1]heptan-5-yl]pyrazolo[1,5-a]pyrimidine-3-carboxamide], the “frequency of HA-positive cells, higher than vehicle controls” value is 5.5 fold.
